We go through eight compounds from ChEMBL document CHEMBL1201862, “PubChem BioAssay data set” (2004).

Test systems include ACHN; CAKI-1; CCRF-CEM; COLO 205; HCC 2998; HT-29; IGROV-1; NCI-H226; OVCAR-8; RPMI-8226; SF-268; SK-MEL-2; SK-OV-3; SN12C; SNB-19; SNB-75; SW-620; UACC-62; UO-31; HOP-92.
Assay in all cases: growth of human tumour cells (NCI), 48 h

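Step 1: Grow cells in 96-well plates. Step 2: Expose to compound for 48 hours at 5 concentrations. Step 3: Interpolate endpoints linearly; if unreached, use highest concentration. GI50 is the concentration that inhibits growth by half.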 Activity calls are given as the source filed them. Rule as the data show it: active = GI50 up to about 1.1 µM and inactive = higher.

On to `N#CCCC1C(C#N)C2(Cl)CC1(Cl)C(Cl)=C2Cl` (stereo not drawn), for which the GI50 in the assay on ACHN, in the assay with CAKI-1, in the assay on CCRF-CEM, with COLO 205, in the assay on HCC 2998 and in the assay with HT-29 was > 10 µM (inactive) in each case. Moreover, the GI50 in the assay with IGROV-1, with NCI-H226, in the assay on OVCAR-8, in the assay with RPMI-8226, in the assay with SF-268 and in the assay on SK-MEL-2 was > 10 µM (inactive) each time. For the same compound, the GI50 in the assay with SK-OV-3, in the assay with SN12C, with SNB-19, with SNB-75, in the assay on SW-620 and in the assay with UACC-62 was > 10 µM (inactive) throughout. Moreover, the GI50 with UO-31 was > 10 µM (inactive).

Regarding `CCCCOC(=O)CN1C(=O)c2ccccc2C1=O`, the GI50 in the assay with ACHN was > 100 µM (inactive); in the assay on CAKI-1, 84.5 µM (inactive); in the assay with COLO 205, > 100 µM (inactive); in the assay with HCC 2998 it was > 100 µM (inactive); in the assay with HOP-92, > 100 µM (inactive); with HT-29, > 100 µM (inactive). Also, the GI50 in the assay with IGROV-1, in the assay with NCI-H226, in the assay with OVCAR-8, with SF-268, in the assay on SK-MEL-2 and in the assay with SK-OV-3 was > 100 µM (inactive) each time. Also, the GI50 with SNB-19, with SNB-75, with SW-620, in the assay on UACC-62 and in the assay on UO-31 was > 100 µM (inactive) in each case.

Regarding `CCC1=NC(C(F)(F)F)(C(F)(F)F)N=C(N2CCOCC2)O1`, the GI50 in the assay with ACHN was > 100 µM (inactive); in the assay on CAKI-1, 34.5 µM (inactive); in the assay with CCRF-CEM, > 100 µM (inactive); in the assay on COLO 205, > 100 µM (inactive); in the assay with HCC 2998, > 100 µM (inactive); in the assay on HOP-92 it was > 100 µM (inactive). The GI50 with HT-29, with IGROV-1, in the assay on OVCAR-8, with RPMI-8226, in the assay with SF-268 and in the assay on SK-MEL-2 was > 100 µM (inactive) each time. Further, the GI50 with SK-OV-3, with SN12C, with SNB-19, with SNB-75, in the assay with SW-620 and in the assay on UACC-62 was > 100 µM (inactive) throughout. Further, the GI50 with UO-31 was > 100 µM (inactive).

With `CC1(C)CCc2cc3c(-c4ccccc4)cc(=O)oc3cc2O1`, the GI50 in the assay on ACHN is > 100 µM (inactive); in the assay on CAKI-1, > 100 µM (inactive); in the assay on CCRF-CEM, > 100 µM (inactive); with COLO 205, > 100 µM (inactive); in the assay on HOP-92 it was 21.1 µM (inactive); with HT-29, > 100 µM (inactive). Besides, the GI50 in the assay with IGROV-1, in the assay on NCI-H226, in the assay with OVCAR-8, in the assay on RPMI-8226, in the assay on SF-268 and in the assay on SK-MEL-2 was > 100 µM (inactive) throughout. Moreover, the GI50 with SK-OV-3 is > 100 µM (inactive); with SN12C it was > 100 µM (inactive); in the assay with SNB-19, 87.5 µM (inactive); with SNB-75, 13.7 µM (inactive); in the assay with SW-620 it was > 100 µM (inactive); with UACC-62, > 100 µM (inactive). Moreover, in the assay with UO-31, the GI50 is > 100 µM (inactive).

For `CCOC(=O)c1csc(NC(=O)CN(C)C)n1`, the GI50 in the assay on ACHN, in the assay with CAKI-1, in the assay with CCRF-CEM, with COLO 205, with HCC 2998 and in the assay with HOP-92 was > 100 µM (inactive) in each case. Further, the GI50 in the assay with HT-29, in the assay with IGROV-1, in the assay on NCI-H226, with OVCAR-8, in the assay on RPMI-8226 and in the assay on SF-268 was > 100 µM (inactive) throughout. Further, the GI50 with SK-MEL-2, with SK-OV-3, with SNB-19, with SNB-75, in the assay on SW-620 and in the assay with UACC-62 was > 100 µM (inactive) each time. Also, the GI50 with UO-31 was > 100 µM (inactive).

With `O=c1n(CC2CO2)c2ccccc2n1CC1CS1` (stereo not drawn), the GI50 is > 100 µM (inactive) with ACHN; 45.1 µM (inactive) in the assay with CAKI-1; 63.2 µM (inactive) in the assay on CCRF-CEM; > 100 µM (inactive) in the assay with COLO 205; > 100 µM (inactive) in the assay on HCC 2998; > 100 µM (inactive) with HOP-92. Further, the GI50 is > 10 µM (inactive) in the assay with HT-29; > 100 µM (inactive) in the assay on IGROV-1; > 100 µM (inactive) in the assay with NCI-H226; > 100 µM (inactive) in the assay with OVCAR-8; 36.3 µM (inactive) in the assay with RPMI-8226; 91.8 µM (inactive) with SF-268. Moreover, the GI50 with SK-MEL-2 is > 100 µM (inactive); with SK-OV-3, > 10 µM (inactive); in the assay with SN12C, > 100 µM (inactive); with SNB-19, > 100 µM (inactive); in the assay on SW-620, > 100 µM (inactive); with UACC-62 it was 49 µM (inactive). The GI50 with UO-31 is > 100 µM (inactive).

Turning to `Cc1ccc(Cl)cc1/N=N/C(=O)NNc1cc(Cl)ccc1C`, the GI50 with CAKI-1 was 13.1 µM (inactive); in the assay with CCRF-CEM, 10 µM (inactive); with COLO 205, 21.9 µM (inactive); with HCC 2998, 40.4 µM (inactive); in the assay with HOP-92, 15.5 µM (inactive); with HT-29 it was 26.9 µM (inactive). Further, the GI50 is 15.3 µM (inactive) in the assay on IGROV-1; 20.1 µM (inactive) in the assay with NCI-H226; 19.9 µM (inactive) with RPMI-8226; 13.9 µM (inactive) with SK-MEL-2; 20.3 µM (inactive) with SK-OV-3; 29.4 µM (inactive) in the assay on SN12C. In addition, the GI50 in the assay on SNB-19 was 19.4 µM (inactive); in the assay on SNB-75 it was 13.1 µM (inactive); in the assay on UACC-62, 11.2 µM (inactive); in the assay with UO-31, 14.1 µM (inactive).

Consider `O=c1c2ccccc2[nH]c2cc(O)cc(O)c12`, for which the GI50 in the assay with ACHN was 26.4 µM (inactive); with CCRF-CEM, 49 µM (inactive); in the assay with HCC 2998, 50.2 µM (inactive); in the assay with HT-29 it was 40.2 µM (inactive); with IGROV-1, < 0.01 µM (active); in the assay with NCI-H226, 27.2 µM (inactive). Further, the GI50 in the assay with OVCAR-8 was 30.6 µM (inactive); in the assay on SF-268, 93.8 µM (inactive); in the assay with SK-MEL-2, 81.7 µM (inactive); in the assay on SK-OV-3, 85.5 µM (inactive); in the assay with SN12C, 61.4 µM (inactive); in the assay on SNB-19, > 100 µM (inactive). In addition, the GI50 is 47.9 µM (inactive) in the assay on SNB-75, > 100 µM (inactive) with UACC-62 and 21 µM (inactive) with UO-31.
